Where two headings read alike, the source gives them in different places.
How the values were obtained:
EGFR L858R/T790M/C797S = EGFR L858R/T790M/C797S (Homo sapiens, UniProt P00533, C797S/L858R/T790M); assay: Biochemical EGFR kinase assay (Lance Ultra TR-FRET), triple mutant L858R/T790M/C797S
In short: (§1)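 In this biochemical assay, phosphorylation after a one-hour room-temperature reaction was detected with europium-labelled anti-phosphopeptide antibody at 2 nM final concentration.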

EGFR del19/T790M/C797S = EGFR del19/T790M/C797S (Homo sapiens, UniProt P00533, C797S/DEL746-750/T790M); assay: Biochemical EGFR kinase assay (Lance Ultra TR-FRET), triple mutant del19/T790M/C797S
EGFR del19/T790M/C797S, sequence (P00533 with tags, fused parts or gaps DEL746-750/T790M/C797S): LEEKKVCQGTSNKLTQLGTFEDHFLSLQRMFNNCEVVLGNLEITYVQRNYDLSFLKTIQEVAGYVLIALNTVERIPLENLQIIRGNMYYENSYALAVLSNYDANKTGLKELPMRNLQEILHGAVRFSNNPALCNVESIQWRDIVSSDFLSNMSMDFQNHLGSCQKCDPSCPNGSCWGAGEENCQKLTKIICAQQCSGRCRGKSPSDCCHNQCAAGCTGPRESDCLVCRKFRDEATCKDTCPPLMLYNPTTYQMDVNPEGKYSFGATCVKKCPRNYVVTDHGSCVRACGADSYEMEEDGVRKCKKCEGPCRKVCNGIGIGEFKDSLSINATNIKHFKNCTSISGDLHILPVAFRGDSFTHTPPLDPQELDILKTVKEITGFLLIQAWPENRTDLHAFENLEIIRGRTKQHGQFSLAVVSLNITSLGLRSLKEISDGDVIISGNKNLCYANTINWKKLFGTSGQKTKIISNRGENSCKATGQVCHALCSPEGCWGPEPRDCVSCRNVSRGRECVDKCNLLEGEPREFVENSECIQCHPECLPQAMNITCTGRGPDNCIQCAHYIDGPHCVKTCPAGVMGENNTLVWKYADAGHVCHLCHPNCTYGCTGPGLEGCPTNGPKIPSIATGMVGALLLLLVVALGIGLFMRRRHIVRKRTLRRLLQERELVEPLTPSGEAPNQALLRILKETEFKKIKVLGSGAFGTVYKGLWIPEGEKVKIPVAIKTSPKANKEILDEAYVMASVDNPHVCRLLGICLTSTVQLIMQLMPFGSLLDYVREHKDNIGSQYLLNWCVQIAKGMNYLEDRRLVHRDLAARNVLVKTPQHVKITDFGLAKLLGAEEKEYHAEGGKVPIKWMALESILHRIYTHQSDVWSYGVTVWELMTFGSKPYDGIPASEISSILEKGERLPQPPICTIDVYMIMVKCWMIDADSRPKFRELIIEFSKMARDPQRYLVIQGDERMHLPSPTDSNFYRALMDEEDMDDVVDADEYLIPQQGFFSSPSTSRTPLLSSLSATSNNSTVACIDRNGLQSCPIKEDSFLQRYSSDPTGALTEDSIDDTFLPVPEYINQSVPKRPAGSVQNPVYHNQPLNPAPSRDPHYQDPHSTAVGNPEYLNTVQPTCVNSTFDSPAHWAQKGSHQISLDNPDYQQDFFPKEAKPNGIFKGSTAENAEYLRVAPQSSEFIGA
In short: as §1

EGFR L858R/C797S = EGFR L858R/C797S (Homo sapiens, UniProt P00533, C797S/L858R); assay: Biochemical EGFR kinase assay (Lance Ultra TR-FRET), double mutant L858R/C797S
EGFR L858R/C797S, sequence (P00533 25-1210 C797S/L858R): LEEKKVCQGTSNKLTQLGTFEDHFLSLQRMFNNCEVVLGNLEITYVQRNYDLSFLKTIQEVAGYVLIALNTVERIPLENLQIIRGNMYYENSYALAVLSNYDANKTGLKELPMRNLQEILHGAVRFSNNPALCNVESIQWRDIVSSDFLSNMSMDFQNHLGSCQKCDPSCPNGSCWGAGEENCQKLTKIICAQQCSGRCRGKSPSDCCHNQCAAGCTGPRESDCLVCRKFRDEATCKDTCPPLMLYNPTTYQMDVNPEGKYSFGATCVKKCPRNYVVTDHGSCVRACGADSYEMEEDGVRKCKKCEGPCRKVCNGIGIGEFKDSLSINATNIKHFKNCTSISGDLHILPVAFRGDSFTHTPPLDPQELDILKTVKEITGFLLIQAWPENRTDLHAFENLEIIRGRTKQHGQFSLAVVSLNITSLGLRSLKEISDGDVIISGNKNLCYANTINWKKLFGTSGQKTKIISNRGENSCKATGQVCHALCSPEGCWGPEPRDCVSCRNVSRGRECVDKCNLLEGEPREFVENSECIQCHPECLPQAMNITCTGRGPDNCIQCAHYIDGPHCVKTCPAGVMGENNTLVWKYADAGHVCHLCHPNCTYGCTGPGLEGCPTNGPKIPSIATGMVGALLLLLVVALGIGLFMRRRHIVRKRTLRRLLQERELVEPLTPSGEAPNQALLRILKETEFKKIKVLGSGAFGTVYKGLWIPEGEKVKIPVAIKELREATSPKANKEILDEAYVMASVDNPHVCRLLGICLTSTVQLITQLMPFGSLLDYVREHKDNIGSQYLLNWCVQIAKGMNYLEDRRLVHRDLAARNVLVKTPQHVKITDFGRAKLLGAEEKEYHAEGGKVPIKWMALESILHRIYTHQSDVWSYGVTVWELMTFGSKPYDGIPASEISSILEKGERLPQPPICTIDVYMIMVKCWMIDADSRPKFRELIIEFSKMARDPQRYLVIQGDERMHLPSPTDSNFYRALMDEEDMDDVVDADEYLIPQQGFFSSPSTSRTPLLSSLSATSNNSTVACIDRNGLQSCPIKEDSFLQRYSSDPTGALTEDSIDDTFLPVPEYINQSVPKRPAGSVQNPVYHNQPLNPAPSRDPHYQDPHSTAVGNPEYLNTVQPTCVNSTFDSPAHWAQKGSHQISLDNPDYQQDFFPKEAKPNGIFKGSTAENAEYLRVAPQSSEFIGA
In short: as §1

EGFR wildtype = EGFR wildtype (Homo sapiens, UniProt P00533); assay: Biochemical EGFR kinase assay (Lance Ultra TR-FRET), wildtype
In short: as §1

EGFR del19/C797S = EGFR del19/C797S (Homo sapiens, UniProt P00533, C797S/DEL746-750); assay: Biochemical EGFR kinase assay (Lance Ultra TR-FRET), double mutant del19/C797S
EGFR del19/C797S, sequence (P00533 with tags, fused parts or gaps DEL746-750/C797S): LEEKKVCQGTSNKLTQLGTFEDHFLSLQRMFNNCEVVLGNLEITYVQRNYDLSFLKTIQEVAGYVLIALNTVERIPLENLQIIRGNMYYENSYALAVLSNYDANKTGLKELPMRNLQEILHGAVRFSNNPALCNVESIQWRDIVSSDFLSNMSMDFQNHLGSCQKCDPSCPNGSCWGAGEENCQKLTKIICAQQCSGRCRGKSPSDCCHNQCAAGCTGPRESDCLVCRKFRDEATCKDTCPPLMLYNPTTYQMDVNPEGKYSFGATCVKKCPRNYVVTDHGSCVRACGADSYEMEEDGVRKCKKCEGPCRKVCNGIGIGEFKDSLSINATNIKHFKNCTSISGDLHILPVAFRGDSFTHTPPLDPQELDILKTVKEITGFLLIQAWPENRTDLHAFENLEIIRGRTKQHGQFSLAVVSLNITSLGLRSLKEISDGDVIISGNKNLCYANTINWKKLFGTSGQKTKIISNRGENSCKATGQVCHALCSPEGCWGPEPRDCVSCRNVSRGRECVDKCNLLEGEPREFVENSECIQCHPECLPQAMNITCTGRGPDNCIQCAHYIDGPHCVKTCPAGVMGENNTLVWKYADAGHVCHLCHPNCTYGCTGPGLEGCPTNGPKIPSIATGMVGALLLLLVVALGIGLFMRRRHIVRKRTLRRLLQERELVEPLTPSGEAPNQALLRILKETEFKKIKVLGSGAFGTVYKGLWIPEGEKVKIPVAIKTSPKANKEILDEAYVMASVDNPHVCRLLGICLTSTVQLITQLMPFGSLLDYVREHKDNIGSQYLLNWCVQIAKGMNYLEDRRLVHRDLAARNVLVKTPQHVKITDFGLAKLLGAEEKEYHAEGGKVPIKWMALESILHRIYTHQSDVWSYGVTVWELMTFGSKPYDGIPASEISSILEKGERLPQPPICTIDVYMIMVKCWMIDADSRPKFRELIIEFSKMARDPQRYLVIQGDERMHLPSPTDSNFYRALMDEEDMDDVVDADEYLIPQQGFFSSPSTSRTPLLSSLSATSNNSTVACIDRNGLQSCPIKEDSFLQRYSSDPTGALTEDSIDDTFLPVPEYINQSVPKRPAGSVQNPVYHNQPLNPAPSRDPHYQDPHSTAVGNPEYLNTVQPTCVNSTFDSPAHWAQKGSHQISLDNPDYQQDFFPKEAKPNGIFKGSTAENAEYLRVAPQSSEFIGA
In short: as §1

[1] = ATP at Km, read-out: IC50 L858R/T790M/C797S, Km ATP
[2] = IC50 L858R/T790M/C797S, 100 μM ATP
[3] = ATP at Km, read-out: IC50 del19/T790M/C797S, Km ATP
[4] = IC50 del19/T790M/C797S, 100 μM ATP
[5] = ATP at Km, read-out: IC50 L858R/C797S, Km ATP
[6] = ATP at Km, read-out: IC50 WT, Km ATP
[7] = ATP at Km, read-out: IC50 del19/C797S, Km ATP

EGFR L858R/T790M/C797S, sequence (P00533 25-1210 T790M/C797S/L858R): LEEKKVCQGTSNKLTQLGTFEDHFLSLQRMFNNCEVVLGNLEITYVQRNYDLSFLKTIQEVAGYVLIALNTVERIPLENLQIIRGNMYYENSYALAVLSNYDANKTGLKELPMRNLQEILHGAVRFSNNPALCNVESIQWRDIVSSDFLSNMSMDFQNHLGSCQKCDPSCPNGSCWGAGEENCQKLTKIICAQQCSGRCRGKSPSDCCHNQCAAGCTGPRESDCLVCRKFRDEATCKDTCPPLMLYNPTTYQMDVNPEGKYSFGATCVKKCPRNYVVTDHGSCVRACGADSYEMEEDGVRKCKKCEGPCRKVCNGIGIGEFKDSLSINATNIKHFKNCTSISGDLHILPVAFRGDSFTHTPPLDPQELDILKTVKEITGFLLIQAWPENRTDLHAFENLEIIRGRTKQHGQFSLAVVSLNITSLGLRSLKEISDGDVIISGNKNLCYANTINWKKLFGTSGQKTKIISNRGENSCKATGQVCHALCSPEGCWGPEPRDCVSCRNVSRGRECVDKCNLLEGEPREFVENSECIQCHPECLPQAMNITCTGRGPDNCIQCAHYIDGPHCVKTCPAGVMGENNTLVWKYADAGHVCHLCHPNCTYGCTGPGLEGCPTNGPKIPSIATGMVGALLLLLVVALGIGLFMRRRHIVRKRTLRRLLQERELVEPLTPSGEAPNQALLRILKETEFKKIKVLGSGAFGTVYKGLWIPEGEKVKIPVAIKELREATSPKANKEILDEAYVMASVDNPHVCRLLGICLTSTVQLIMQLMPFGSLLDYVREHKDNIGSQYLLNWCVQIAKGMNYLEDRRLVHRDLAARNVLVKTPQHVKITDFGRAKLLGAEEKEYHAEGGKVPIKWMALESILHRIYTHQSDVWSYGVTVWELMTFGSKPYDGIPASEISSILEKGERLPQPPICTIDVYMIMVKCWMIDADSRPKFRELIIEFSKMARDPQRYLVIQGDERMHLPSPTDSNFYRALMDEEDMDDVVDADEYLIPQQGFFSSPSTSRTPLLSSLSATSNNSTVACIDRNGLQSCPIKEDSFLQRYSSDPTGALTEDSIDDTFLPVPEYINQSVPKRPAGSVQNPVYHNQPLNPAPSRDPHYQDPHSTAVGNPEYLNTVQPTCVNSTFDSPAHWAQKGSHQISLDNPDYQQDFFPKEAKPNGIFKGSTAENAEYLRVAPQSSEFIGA

IC50 (EGFR L858R/T790M/C797S; [1]) [nM]	IC50 (EGFR L858R/T790M/C797S; [2]) [nM]	IC50 (EGFR del19/T790M/C797S; [3]) [nM]	IC50 (EGFR del19/T790M/C797S; [4]) [nM]	IC50 (EGFR L858R/C797S; [5]) [nM]	IC50 (EGFR L858R/C797S; IC50 L858R/C797S, 100 μM ATP) [nM]	IC50 (EGFR wildtype; [6]) [nM]	IC50 (EGFR wildtype; IC50 WT, 100 μM ATP) [nM]	IC50 (EGFR del19/C797S; [7]) [nM]	IC50 (EGFR del19/C797S; IC50 del19/C797S, 100 μM ATP) [nM]	Structure (SMILES)
0.2	0.7	0.5	0.8	3	15	5.1	> 10000	0.5	1.3	CC(C)(O)[C@H]1CC[C@@H](Nc2cc(Nc3ccnc(-c4cnn(S(=O)(=O)C5CC5)c4)n3)ncc2-c2ccc(S(C)(=O)=O)cn2)CC1 [Example 160, 2-((1s,4s)-4-((6′-((2-(1-(Cyclopropylsulfonyl)-1H-pyrazol-4-yl)pyrimidin-4-yl)amino)-5-(methylsulfonyl)-[2,3′-bipyridin]-4′-yl)amino)cyclohexyl)propan-2-ol]
0.1	0.5	0.1	0.1	1.9	12.4	11.6	> 10000	0.9	1.2	O=S(=O)(C1CC1)n1cc(-c2nccc(Nc3cc(NCC4(CO)COC4)c(-c4cccc(F)n4)cn3)n2)cn1 [Example 161, (3-(((6′-((2-(1-(Cyclopropylsulfonyl)-1H-pyrazol-4-yl)pyrimidin-4-yl)amino)-6-fluoro-[2,3′-bipyridin]-4′-yl)amino)methyl)oxetan-3-yl)methanol]
0.4	3	0.5	1.3	19.9	1530	2970	> 10000	13.1	21	O=S(=O)(C1CC1)n1cc(-c2nccc(Nc3cc(NC4CCC(F)(CO)CC4)c(-c4cccc(F)n4)cn3)n2)cn1 (centres unmarked) [Example 162, (4-((6′-((2-(1-(Cyclopropylsulfonyl)-1H-pyrazol-4-yl)pyrimidin-4-yl)amino)-6-fluoro-[2,3′-bipyridin]-4′-yl)amino)-1-fluorocyclohexyl)methanol]
0.7	2.3		2.6	13	49.4	18.7	> 10000	2.6	3.1	CC(C)(O)[C@H]1CC[C@@H](Nc2cc(Nc3ccnc(-c4cnn(S(=O)(=O)C5CC5)c4)n3)ncc2-c2cccc(F)n2)CC1 [Example 163, 2-((1s,4s)-4-((6′-((2-(1-(Cyclopropylsulfonyl)-1H-pyrazol-4-yl)pyrimidin-4-yl)amino)-6-fluoro-[2,3′-bipyridin]-4′-yl)amino)cyclohexyl)propan-2-ol]
1	1.7	3.5	1.2	1.6	18.5		> 10000	1.8	7.6	CN(C)S(=O)(=O)c1ccc(-c2cnc(Nc3ccnc(-c4cnn(S(=O)(=O)C5CC5)c4)n3)cc2N[C@H]2CC[C@@H](C(C)(C)O)CC2)nc1 [Example 165, 6′-((2-(1-(Cyclopropylsulfonyl)-1H-pyrazol-4-yl)pyrimidin-4-yl)amino)-4′-(((1s,4s)-4-(2-hydroxypropan-2-yl)cyclohexyl)amino)-N,N-dimethyl-[2,3′-bipyridine]-5-sulfonamide]
	0.6	1.9	5.1	1.1	2.4	2	> 10000	1.2	2.4	CN(C)S(=O)(=O)c1ccc(-c2cnc(Nc3ccnc(-c4cnn(S(=O)(=O)C5CC5)c4)n3)cc2N[C@H]2CC[C@@H](CO)CC2)nc1 [Example 166, 6′-((2-(1-(Cyclopropylsulfonyl)-1H-pyrazol-4-yl)pyrimidin-4-yl)amino)-4′-(((1s,4s)-4-(hydroxymethyl)cyclohexyl)amino)-N,N-dimethyl-[2,3′-bipyridine]-5-sulfonamide]
	3.5		2.7		52.2		> 10000		45.8	CN(C)c1ccnc(-c2cnc(Nc3ccnc(-c4cnn(S(=O)(=O)C5CC5)c4)n3)cc2N[C@H]2CC[C@@](C)(O)CC2)c1 [Example 167, (1s,4s)-4-((6′-((2-(1-(Cyclopropylsulfonyl)-1H-pyrazol-4-yl)pyrimidin-4-yl)amino)-4-(dimethylamino)-[2,3′-bipyridin]-4′-yl)amino)-1-methylcyclohexan-1-ol]
0.2	0.2	0.4	0.3	0.2	0.5		92.2	0.2	0.4	CC(C)(O)c1ccc(-c2cnc(Nc3ccnc(-c4cnn(S(=O)(=O)C5CC5)c4)n3)cc2N[C@H]2CC[C@@](C)(O)CC2)nc1 [Example 168, (1s,4s)-4-((6′-((2-(1-(Cyclopropylsulfonyl)-1H-pyrazol-4-yl)pyrimidin-4-yl)amino)-5-(2-hydroxypropan-2-yl)-[2,3′-bipyridin]-4′-yl)amino)-1-methylcyclohexan-1-ol]
	0.7	1.3	0.9	0.4			416	0.5	1.3	CC(C)(O)c1ccc(-c2cnc(Nc3ccnc(-c4cnn(S(=O)(=O)C5CC5)c4)n3)cc2N[C@H]2CC[C@@H](C(C)(C)O)CC2)nc1 [Example 169, 2-(6′-((2-(1-(Cyclopropylsulfonyl)-1H-pyrazol-4-yl)pyrimidin-4-yl)amino)-4′-(((1s,4s)-4-(2-hydroxypropan-2-yl)cyclohexyl)amino)-[2,3′-bipyridin]-5-yl)propan-2-ol]
0.2	0.9	0.8	1.3	0.6	2.1		141	0.7	2	CC(C)(O)c1ccc(-c2cnc(Nc3ccnc(-c4cnn(S(=O)(=O)C5CC5)c4)n3)cc2N[C@H]2CC[C@@H](CO)CC2)nc1 [Example 170, 2-(6′-((2-(1-(Cyclopropylsulfonyl)-1H-pyrazol-4-yl)pyrimidin-4-yl)amino)-4′-(((1s,4s)-4-(hydroxymethyl)cyclohexyl)amino)-[2,3′-bipyridin]-5-yl)propan-2-ol]
0.1	0.2	0.3	0.5	0.2	0.3	0.2	67.9	0.1	0.3	CN(C)C[C@H]1CC[C@@H](Nc2cc(Nc3ccnc(-c4cnn(S(=O)(=O)C5CC5)c4)n3)ncc2-c2ccc(C(C)(C)O)cn2)CC1 [Example 171, 2-(6′-((2-(1-(Cyclopropylsulfonyl)-1H-pyrazol-4-yl)pyrimidin-4-yl)amino)-4′-(((1s,4s)-4-((dimethylamino)methyl)cyclohexyl)amino)-[2,3′-bipyridin]-5-yl)propan-2-ol]
0.2	0.2	0.7	0.6	1.3	4.8	0.4	93.2	0.3	0.8	CN(C)C(=O)[C@H]1CC[C@@H](Nc2cc(Nc3ccnc(-c4cnn(S(=O)(=O)C5CC5)c4)n3)ncc2-c2ccc(C(C)(C)O)cn2)CC1 [Example 172, (1s,4s)-4-((6′-((2-(1-(Cyclopropylsulfonyl)-1H-pyrazol-4-yl)pyrimidin-4-yl)amino)-5-(2-hydroxypropan-2-yl)-[2,3′-bipyridin]-4′-yl)amino)-N,N-dimethylcyclohexane-1-carboxamide]
